Drawing on US5643872A, “Cyclic anti-aggregatory peptides” (SmithKline Beecham Corporation, priority 1994, dated 1997), this text covers ring closure, crude yield and IC50 for 16 compounds.

For data set [1] the following is noted: amide bond, DMF.
The next data set has as its target dog platelets (Canis lupus familiaris, UniProt A0A8I3N5G5+A0A8I3PMU9). Particulars: read-out: IC50 for the aggregation of dog platelets stimulated by ADP; agonist ADP; peptides added 3 min prior to the agonist; light transmittance 5 min after agonist. How it is done: Inhibition of Platelet Aggregation
Blood was collected (citrated to prevent coagulation) from, naive, adult mongrel dogs. Platelet rich plasma, PRP, was prepared by centrifugation at 150×g for 10 min at room temperature. Washed platelets were prepared by centrifuging PRP at 800×g for 10 min. The cell pellet thus obtained was washed twice in Tyrode's buffer (pH 6.5) without Ca^++ and resuspended in Tyrode's buffer (pH 7.4) containing 1.8 mM Ca^++ at […]. Peptides were added 3 min prior to the agonist in all assays of platelet aggregation. Final agonist concentrations were 0.1 unit/ml thrombin and […] (Sigma). Aggregation was monitored in a Chrono-Log Lumi-Aggregometer. Light transmittance 5 min after addition of the agonist was used to calculate percent aggregation according to the formula % aggregation=[(90-CR)[…](90-10)]×100, where CR is the chart reading, 90 is the baseline, and 10 is the PRP blank reading. IC50 's were determined by plotting [% inhibition of aggregation] vs. [concentration of peptide]. Peptides were assayed at […] and diluted sequentially by a factor of 2 to establish a suitable dose response curve.

Where [2] appears, read: the molecule shown is the open-chain precursor, 20-membered ring, BOP/DIEA, resin, with chain assembly.

Read-outs that look alike come from different tables or passages of the source. Square brackets hold non-standard residues; d marks the D form. Peptide text beside a SMILES is read from it.

The IC50 is the midpoint of a concentration-inhibition curve.

Chain of dog platelets (A0A8I3N5G5 1-1047): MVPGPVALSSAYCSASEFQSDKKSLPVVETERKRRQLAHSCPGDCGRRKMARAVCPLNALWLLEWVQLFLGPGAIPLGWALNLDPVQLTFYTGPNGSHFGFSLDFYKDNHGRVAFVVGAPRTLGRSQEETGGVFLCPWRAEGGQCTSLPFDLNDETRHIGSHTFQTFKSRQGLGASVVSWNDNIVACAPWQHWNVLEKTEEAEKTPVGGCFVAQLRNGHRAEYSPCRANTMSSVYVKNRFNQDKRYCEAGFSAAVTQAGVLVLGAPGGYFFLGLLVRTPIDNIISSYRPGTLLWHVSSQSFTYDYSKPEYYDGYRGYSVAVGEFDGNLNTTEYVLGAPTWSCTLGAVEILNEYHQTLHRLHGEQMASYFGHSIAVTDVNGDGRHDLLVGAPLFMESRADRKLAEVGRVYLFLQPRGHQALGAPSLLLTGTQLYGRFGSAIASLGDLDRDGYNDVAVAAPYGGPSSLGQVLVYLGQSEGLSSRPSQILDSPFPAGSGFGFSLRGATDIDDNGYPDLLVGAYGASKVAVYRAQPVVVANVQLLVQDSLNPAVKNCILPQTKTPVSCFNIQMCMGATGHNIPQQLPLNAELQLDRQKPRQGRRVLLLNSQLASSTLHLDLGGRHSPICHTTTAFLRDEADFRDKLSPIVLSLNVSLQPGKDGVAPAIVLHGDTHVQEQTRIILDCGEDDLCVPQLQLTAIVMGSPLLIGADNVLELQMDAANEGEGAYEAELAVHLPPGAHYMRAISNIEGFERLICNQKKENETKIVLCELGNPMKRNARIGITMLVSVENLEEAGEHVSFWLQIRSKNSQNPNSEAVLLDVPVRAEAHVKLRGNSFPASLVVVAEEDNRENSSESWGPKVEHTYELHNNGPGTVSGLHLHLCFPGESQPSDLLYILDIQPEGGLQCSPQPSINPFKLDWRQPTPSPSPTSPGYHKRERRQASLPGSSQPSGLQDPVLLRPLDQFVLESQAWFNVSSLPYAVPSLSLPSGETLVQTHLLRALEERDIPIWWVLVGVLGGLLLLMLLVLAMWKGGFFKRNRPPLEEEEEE
Chain of dog platelets (A0A8I3PMU9 1-919): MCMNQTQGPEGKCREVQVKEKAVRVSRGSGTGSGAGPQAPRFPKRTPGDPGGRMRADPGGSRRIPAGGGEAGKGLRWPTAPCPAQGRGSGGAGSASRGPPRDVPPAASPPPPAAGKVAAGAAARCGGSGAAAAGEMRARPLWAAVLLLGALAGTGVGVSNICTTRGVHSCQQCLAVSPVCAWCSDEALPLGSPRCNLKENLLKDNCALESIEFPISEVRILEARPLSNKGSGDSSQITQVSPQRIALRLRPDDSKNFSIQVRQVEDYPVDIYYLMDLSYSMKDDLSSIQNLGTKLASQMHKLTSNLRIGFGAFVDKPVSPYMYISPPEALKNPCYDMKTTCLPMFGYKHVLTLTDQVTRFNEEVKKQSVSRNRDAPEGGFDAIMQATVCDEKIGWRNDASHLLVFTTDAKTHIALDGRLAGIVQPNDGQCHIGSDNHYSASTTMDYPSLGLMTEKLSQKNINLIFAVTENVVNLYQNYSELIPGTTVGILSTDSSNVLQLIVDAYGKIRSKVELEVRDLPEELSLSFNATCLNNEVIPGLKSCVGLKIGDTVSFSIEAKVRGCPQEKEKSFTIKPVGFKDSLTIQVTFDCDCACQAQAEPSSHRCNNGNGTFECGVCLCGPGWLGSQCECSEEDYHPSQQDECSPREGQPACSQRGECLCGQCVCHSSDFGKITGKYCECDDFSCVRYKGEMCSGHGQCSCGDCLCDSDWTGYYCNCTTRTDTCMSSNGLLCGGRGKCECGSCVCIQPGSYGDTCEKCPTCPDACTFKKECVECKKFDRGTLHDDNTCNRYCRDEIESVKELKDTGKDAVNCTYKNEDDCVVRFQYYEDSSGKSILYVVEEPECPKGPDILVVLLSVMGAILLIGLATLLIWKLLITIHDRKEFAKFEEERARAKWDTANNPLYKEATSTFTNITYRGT

For the compound `COc1cc(C)c(S(=O)(=O)NC(=N)NCCC[C@@H]2NC(=O)[C@@H]3CCCN3C(=O)[C@@H](Cc3ccccc3)NC(=O)CNC(=O)[C@H](CC(=O)OC(C)(C)C)NC(=O)CNC2=O)c(C)c1C` [cyclo(1,6)-Asp(O-t-Bu)-Gly-D-Phe-Arg(Tos)-Gly], the ring closure, crude yield in data set [1] (from H-Asp(OtBu)-Gly-dPhe-Pro-Arg(Mtr)-Gly-OH, 18-membered ring, PPA/NMM, 0.5 mM) came out at 84%. In the case of `N=C(N)NCCC[C@@H]1NC(=O)CNC(=O)[C@@H]2CCCN2C(=O)[C@H]2CCCN2C(=O)[C@H](CC(=O)O)NC(=O)CNC1=O` [Example 24, cyclo-(1,6)-Pro-Gly-Arg-Gly-Asp-D-Pro] (cyclo(RGD[dP]PG)), on dog platelets, the half-maximal inhibitory concentration (IC50) is greater than 200 µM.

In data set [1] (from H-Asp(Bzl)-Ser(Bzl)-dAla-Arg(Tos)-Gly-OH, 15-membered ring, PPA/NMM, 0.4 mM), `Cc1ccc(S(=O)(=O)NC(=N)NCCC[C@@H]2NC(=O)[C@@H](C)NC(=O)[C@H](COCc3ccccc3)NC(=O)[C@H](CC(=O)OCc3ccccc3)NC(=O)CNC2=O)cc1` [cyclo-(1,5)-D-Ala-Arg(Tos)-Gly-Asp(Bzl)-Ser(Bzl)] came in with a ring closure, crude yield of 67%. Consider “H-Gly-Arg(Tos)-Gly-Asp(Bzl)-Ser(Bzl)-Glu-BHA-resin”, for which the ring closure, crude yield in data set [1] (setting [2]) came out at 94%.

For the compound `C[C@H]1NC(=O)[C@H](CO)NC(=O)[C@H](CC(=O)O)NC(=O)CNC(=O)[C@H](CCCNC(=N)N)NC1=O` [Example 28, cyclo-(1,5)-D-Ala-Arg-Gly-Asp-Ser] (cyclo(RGDS[dA])), the 50% inhibitory concentration (IC50) at dog platelets was greater than 200 µM. Still for that read-out and setting: the figure for `N=C(N)NCCC[C@@H]1NC(=O)[C@@H]2CCCN2C(=O)[C@@H](Cc2ccccc2)NC(=O)[C@H](CC(=O)O)NC(=O)CNC(=O)[C@H](CCCNC(=N)N)NC(=O)[C@@H]2CCCN2C(=O)[C@@H](Cc2ccccc2)NC(=O)[C@H](CC(=O)O)NC(=O)CNC1=O` [Example 22, cyclo-(1,10)-Pro-Arg-Gly-Asp-D-Phe-Pro-Arg-Gly-Asp-D-Phe] (cyclo(RGD[dF]PRGD[dF]P)) is greater than 200 µM. “H-Gly-MeArg(Tos)-Gly-Asp(Bzl)-Ser(Bzl)-Glu-BHA-resin” came in with a ring closure, crude yield in data set [1] (setting [2]) of 100%. Turning to `Cc1ccc(S(=O)(=O)NC(=N)NCCC[C@@H]2NC(=O)[C@@H]3CCCN3C(=O)[C@H]3CCCN3C(=O)CNC(=O)[C@H](CC(=O)OC(C)(C)C)NC(=O)CNC2=O)cc1` [cyclo-(1,6)-Pro-Arg(Tos)-Gly-Asp(O-t-Bu)-Gly-D-Pro], the ring closure, crude yield in data set [1] (from H-Asp(OtBu)-Gly-dPro-Pro-Arg(Tos)-Gly-OH, 18-membered ring, PPA/NMM, 0.57 mM) was found to be 63%. For `COc1cc(C)c(S(=O)(=O)NC(=N)NCCC[C@@H]2NC(=O)[C@@H]3CCCN3C(=O)[C@@H](Cc3ccccc3)NC(=O)[C@H](CC(=O)OC(C)(C)C)NC(=O)CNC(=O)[C@H](CCCNC(=N)NS(=O)(=O)c3c(C)cc(OC)c(C)c3C)NC(=O)[C@@H]3CCCN3C(=O)[C@@H](Cc3ccccc3)NC(=O)[C@H](CC(=O)OC(C)(C)C)NC(=O)CNC2=O)c(C)c1C`, the ring closure, crude yield in data set [1] (from H-Asp(OtBu)-dPhe-Pro-Arg(Mtr)-Gly-Asp(OtBu)-dPhe-Pro-Arg(Mtr)-Gly-OH, 30-membered ring, PPA/NMM, 0.4 mM) amounted to 100%.

For the compound `COc1cc(C)c(S(=O)(=O)NC(=N)NCCC[C@@H]2NC(=O)CNC(=O)[C@@H]3CCCN3C(=O)[C@H]3CCCN3C(=O)[C@H](CC(=O)OC(C)(C)C)NC(=O)CNC2=O)c(C)c1C` [cyclo-(1,6)-Pro-Gly-Arg(Mtr)-Gly-Asp(O-t-Bu)-D-Pro], in data set [1] (from H-Asp(OtBu)-dPro-Pro-Gly-Arg(Mtr)-Gly-OH, 18-membered ring, PPA/NMM, 0.37 mM), the ring closure, crude yield amounted to 31%. `COc1cc(C)c(S(=O)(=O)NC(=N)NCCC[C@@H]2NC(=O)[C@H](Cc3ccccc3)NC(=O)[C@H](CC(=O)OC(C)(C)C)NC(=O)CNC(=O)[C@H](CCCNC(=N)NS(=O)(=O)c3ccc(C)cc3)N(C)C(=O)[C@H](Cc3ccccc3)NC(=O)[C@H](CC(=O)OC(C)(C)C)NC(=O)CNC2=O)c(C)c1C` came in with a ring closure, crude yield in data set [1] (from H-Asp(OtBu)-Phe-MeArg(Tos)-Gly-Asp(OtBu)-Phe-Arg(Mtr)-Gly-OH, 24-membered ring, PPA/NMM, 0.4 mM) of 95%. With `COc1cc(C)c(S(=O)(=O)NC(=N)NCCC[C@@H]2NC(=O)CNC(=O)[C@@H]3CCCN3C(=O)[C@H](COCc3ccccc3)NC(=O)[C@H](CC(=O)OC(C)(C)C)NC(=O)CNC2=O)c(C)c1C` [cyclo-(1,6)-Gly-Arg-Gly-Asp-Ser-Pro], the ring closure, crude yield in data set [1] (from H-Asp(OtBu)-Ser(Bzl)-Pro-Gly-Arg(Mtr)-Gly-OH, 18-membered ring, PPA/NMM, 0.4 mM) was 88%. `N=C(N)NCCC[C@@H]1NC(=O)CNC(=O)[C@@H]2CCCN2C(=O)[C@H](CO)NC(=O)[C@H](CC(=O)O)NC(=O)CNC1=O` [Example 25, cyclo-(1,6)-Gly-Arg-Gly-Asp-Ser-Pro]: at dog platelets, the IC50 was greater than 200 µM. Consider `COc1cc(C)c(S(=O)(=O)NC(=N)NCCC[C@@H]2NC(=O)[C@H](Cc3ccccc3)NC(=O)[C@H](CC(=O)OC(C)(C)C)NC(=O)CNC(=O)[C@H](CCCNC(=N)NS(=O)(=O)c3c(C)cc(OC)c(C)c3C)NC(=O)[C@H](Cc3ccccc3)NC(=O)[C@H](CC(=O)OC(C)(C)C)NC(=O)CNC2=O)c(C)c1C`, for which the ring closure, crude yield in data set [1] (from H-Asp(OtBu)-Phe-Arg(Mtr)-Gly-Asp(OtBu)-Phe-Arg(Mtr)-Gly-OH, 24-membered ring, PPA/NMM, 0.4 mM) was determined as 100%. Turning to `COc1cc(C)c(S(=O)(=O)NC(=N)NCCC[C@@H]2NC(=O)[C@@H]3CCCN3C(=O)CNC(=O)[C@H]3CCCN3C(=O)[C@H](CC(=O)OC(C)(C)C)NC(=O)CNC2=O)c(C)c1C` [cyclo-(1,6)-Gly-Pro-Arg-Gly-Asp-D-Pro], the ring closure, crude yield in data set [1] (from H-Asp(OtBu)-dPro-Gly-Pro-Arg(Mtr)-Gly-OH, 18-membered ring, PPA/NMM, 0.4 mM) was determined as 42%.

`COc1cc(C)c(S(=O)(=O)NC(=N)NCCC[C@@H]2NC(=O)[C@H](C)NC(=O)[C@@H](COCc3ccccc3)NC(=O)[C@H](CC(=O)OC(C)(C)C)NC(=O)CNC2=O)c(C)c1C` [cyclo-(1,5)-Ala-Arg(Mtr)-Gly-Asp(O-t-Bu)-D-Ser(Bzl)] had a ring closure, crude yield in data set [1] (from H-Asp(OtBu)-dSer(Bzl)-Ala-Arg(Mtr)-Gly-OH, 15-membered ring, PPA/NMM, 0.4 mM) of 67%.
